Reference: patent publication US20180250270A1, “MUSCARINIC COMBINATION AND ITS USE FOR COMBATING HYPOCHOLINERGIC DISORDERS OF THE CENTRAL NERVOUS SYSTEM” (Chase Pharmaceuticals Corporation, priority 2015, published 2018)
Like-named read-outs stand apart in the source and are kept apart here.

Columns and labels:
[1] = primate study; cited from earlier work
muscarinic receptors = settings: cited from earlier work
[2] = test system: peripheral cholinergic receptors; settings: rats; cited from earlier work
[3] = clinical trials for Alzheimer disease; cited from earlier work
[4] = test system: peripheral cholinergic receptors; settings: monkeys; cited from earlier work
[5] = cited from earlier work
[6] = 6-month double-blind, placebo-controlled, parallel group trial of xanomeline in patients with Alzheimer disease; type: in vivo, human; settings: in view of Mirza et al 2003; i.e. 225 mg/day
Text: A close analog of tazomeline, the 3-(4-hexyloxy-1,2,5-thiadiazol-3-yl)-1-methyl-5,6-dihydro-2H-pyridine known as xanomeline and described in U.S. Pat. No. 5,043,345, the disclosure of which is incorporated herein by reference in its entirety, has been disclosed as a muscarinic acetylcholine receptor agonist with reasonable selectivity for the M1 and M4 subtypes. The efficacy of xanomeline, which stimulates muscarinic receptors in the brain and in the periphery was studied in patients with Alzheimer disease in a 6-month double-blind, placebo-controlled, parallel group trial. […] Such side effects prevented the use of doses of xanomeline that could achieve maximum anti-dementia efficacy and reflect stimulation of cholinergic receptors outside the brain.
Dose-limiting adverse events attending the use of drugs that stimulate cholinergic transmission, such as xanomeline, appear to primarily reflect the excessive stimulation of peripheral cholinergic receptors, especially those of the muscarinic type (mAChRs), such that in both healthy volunteers and Alzheimer's patients many of these side effects have been reported for xanomeline; in the patient population this led to a discontinuation rate higher than 50% while the effects on cognition were not robust and mainly seen at the highest doses tested (Mirza 2003).

[7] = cited from earlier work; remark: listed apart in the source

In the case of CCCCSc1nsnc1[C@H]1CN2CCC[C@H]1C2 [BuTAC, (5R,6R)-6-(3-butylthio-1,2,5-thiadiazol-4-yl)-1-azabicyclo[3.2.1]octane], the vomiting [1] is listed as “induced vomiting” and the “affinity for muscarinic receptors” value (muscarinic receptors) is listed as “high affinity”.
In the case of CO/N=C/C1=CCCN(C)C1 [milameline, (E)-N-methoxy-1-(1-methyl-1,2,5,6-tetrahydropyridin-3-yl)methanimine], the “doses producing central cholinergic action relative to peripheral action” value [2] is given as “at doses slightly higher than those stimulating peripheral cholinergic receptors”, the maximum tolerated dose [3] is given as 2 mg four times per day and the “doses producing central cholinergic action relative to peripheral action” value [4] is given as “at doses slightly higher than those stimulating peripheral cholinergic receptors”.
For CCCCCCOc1nsnc1C1=CCCN(C)C1 [xanomeline, 3-(4-hexyloxy-1,2,5-thiadiazol-3-yl)-1-methyl-5,6-dihydro-2H-pyridine], the “patients who discontinued treatment” value ([5]; 75 mg xanomeline orally three times daily, mainly adverse events, predominantly gastrointestinal) is given as 59%, the “cognitive and behavioral symptoms of Alzheimer disease compared to placebo” value ([5]; 6-month trial) is given as “significantly improve” and the discontinuation rate ([5]; Alzheimer's patient population (Mirza 2003)) is given as “higher than 50%”. For the same molecule, the side effects ([5]; bradycardia, gastro-intestinal distress, excessive salivation, sweating) was “dose-dependent unacceptable side effects”, the “maximum tolerated dose as considered in the context of the invention” value [6] was 75 mg three times per day and the MTD ([7]; defined by Sramek et al.) was 100 mg three times a day. The minimum intolerated dose ([7]; human, in vivo) was 115 mg three times a day.
